What was measured:
[1] = system: TNF-α production in mouse peritoneal macrophages; test: Inhibition of TNF-α in vitro (mouse peritoneal macrophages, LPS/interferon-γ, Luminex); assay type: cell-based; conditions: suppression of TNF-α; macrophages treated with 50 ng/mL LPS and 10 U/mL interferon-γ for 18 h
Method: Mouse Peritoneal Macrophages
1 mL thioglycolate broth (5.0 g yeast extract, 15.0 g casitone or trypticase, 5.0 g dextrose, 2.5 g sodium chloride, 0.75 g L-cystine, 0.5 g sodium thioglycolate, 1.0 mg resazurin, and 0.75 g agar in 1.0 L distilled water) is injected into the peritoneal cavity of Balb/C female mice. At day 4 or 5 post-injection the mice are sacrificed and then injected i.p. with 4 mL RPMI-1640 medium (BioWhittaker) and the peritoneal macrophages are withdrawn by syringe.
Mouse peritoneal microphages are counted with a hemocytometer and adjusted to 5×10^5 cells/well in 96-well plates in RPMI-1640 medium with 10% fetal bovine serum. 200 μL/well is plated in 96-well plates and the cells allowed to settle and adhere to the bottom of the well for at least 3 h. The test compound or standard p38 kinase inhibitor is pre-treated using a series of 8 concentrations for 1 h at 37° C. (20 μL/well). The cells are treated with a mixture of 50 ng/mL lipopolysaccharide (LPS) and 10 U/mL interferon-γ for 18 h at 37° C. (20 μL/well). The conditioned media is harvested and assayed for TNF-α production using the Luminex procedure.
TNF-α/Luminex Detection Assay (Bio-Rad Bio-Plex Kit—Catalog #171-G12221)
The lyophilized premixed TNF-α standard (1 standard tube/two 96-well plates) is reconstituted with 50 μL sterile water (500,000 pg/mL). The samples are vortexed for 5 seconds, incubated on ice for 30 min, and vortexed for 5 seconds before use. A set of twelve 1.5 mL tubes are labeled with #1-thru #12 and then the amounts of cell media shown below added to the appropriate tubes (standard concentrations are as follows: 50,000; 25,000; 12,500; 6,250; 3,125; 1,562.5; 781.3; 390.6; 195.3; 97.7; 48.8; and 24.4 pg/mL). The premixed anti-cytokine conjugated beads are vortexed (25×) vigorously for 30 seconds. The anti-cytokine conjugated beads are diluted to a 1× concentration using 1× Bio-Plex Assay Buffer. For every plate, 240 μL of the pre-mixed beads is added to 5760 μL of Bio-Plex Assay Buffer. A Millipore 96-well filter plate is blocked with 100 μL/well of blocking buffer. The blocking buffer is filtered through using a Millipore filtration system and then toweled dry. 2 washes are performed on the filter plate with 100 μL/well of Bio-Plex Assay Buffer and toweled dry. The 1× anti-cytokine conjugated beads are vortexed for 15 seconds and added 50 μL to each well. This is filtered through and toweled dry. 2 washes are performed on plates with 100 μl/well of Bio-Plex Wash Buffer. Again, it is filtered through and toweled dry. 50 μL of sample or standard is added to each sample well. This is incubated for 60 seconds at RT on a shaker protected from light at setting 6 and then for 30 min at setting 3 and then placed in the refrigerator overnight. 3 washes are performed with Bio-Plex Wash Buffer. Filter through and toweled dry. The cytokine detection antibody is prepared (˜10 min prior to use) for every plate and 60 μL of the premixed cytokine detection antibody stock is added to 5940 μL of Bio-Plex Detection Antibody Diluent. 50 μL of cytokine detection antibody is added and incubated for 60 seconds at RT on a shaker protected from light at setting 6 and then for 30 min at setting 3.3 washes are performed with the Bio-Plex Wash Buffer. This is filtered through and toweled dry. Strept-PE (˜10 minutes prior to use) is prepared for every plate and 60 μL to 5940 μL of Bio-Plex Assay Buffer added. 50 μL of Streptavidin-PE is added to each well and incubated for 60 seconds at RT on a shaker protected from light at setting 6 and then for 10 min at setting 3. 3 washes are performed with Bio-Plex Wash-Buffer. This is filtered through. The beads are re-suspended in 100 μL/well of Bio-Plex Assay Buffer. Standards and samples are read on a Luminex machine. […]

[2] = system: TNF-α synthesis in synovial lavage fluid; test: Effect on intra-articular LPS induced TNF-α; assay type: in vivo, female Lewis rats
Method: Effect on Intra-articular LPS Induced TNF-α
Intra-articular injection of LPS into rat ankles induces the synthesis of TNF-α, which can be measured in synovial lavage fluid. High levels of TNF-α are detectable within 2 hours. Since the joint is the site where arthritis develops, this model can rapidly determine whether an orally administered compound has an effect on an inflammatory response in the synovium.
Six female Lewis rats (150-200 g) are place in each treatment group. The animals are given vehicle (1% NaCarboxymethylcellulose-0.25% Tween 80) or test compound (1 mg/kg, 3 mg/kg, 10 mg/kg, and 30 mg/kg) orally. One hour later, 10 μl LPS (10 μg) is administered intra-articularly into the right ankle of each rat, while the left ankle receives 10 μL of saline. After two hours, each ankle is lavaged with 100 μL of saline. The lavage is collected and stored at −80° C. • Group#1: Vehicle (1% NaCMC-0.25% Tween 80, 1 mL, PO) • Group#2: Test compound (1 mg/kg, 1 mL, PO) • Group#3: Test compound (3 mg/kg, 1 mL, PO) • Group#4: Test compound (10 mg/kg, 1 mL, PO) • Group#5: Test compound (30 mg/kg, 1 mL, PO)
TNF-α is measured with a commercially available ELISA kit (R&D, RTA00).

[3] = system: collagen induced arthritis (ankle diameter); test: Rat collagen induced arthritis efficacy model; assay type: in vivo, female Lewis rats; conditions: PO bid x 14 days, AUC of composite inflammation scores
Method: Rat Collagen Induced Arthritis Efficacy Model
Female Lewis rats (≅190 g, Charles River Labs) are immunized with Bovine type II collagen (2 mg/mL) emulsified with an equal volume of adjuvant (aluminum hydroxide). […]. The rats are immunized with approximately […] of the emulsion intradermally on the back near the base of the tail. All animals are re-immunized 7 days later according to the same protocol. The rats begin to develop arthritis (characterized by swelling and redness of one or both ankles) from 12 to 14 days after the first immunization. The rats are equally distributed into five treatment groups at the first signs of arthritis and treatment is initiated with each rat dosed bid for 14 days.
Ankle diameter is measured with calipers 5 days a week and recorded. Data is expressed as the area under the curve (AUC) generated from the composite inflammation scores and statistical analysis performed.

In the case of `CC(C)(C)Cn1c(N)nc2ccc(-c3nc(C(C)(C)C)[nH]c3-c3ccc(F)cc3)nc21.CS(=O)(=O)O.CS(=O)(=O)O` [EXAMPLE 104, Crystalline 5-[2-tert-Butyl-5-(4-fluoro-phenyl)-1H-imidazol-4-yl]-3-(2,2-dimethyl-propyl)-3H-imidazo[4,5-b]pyridin-2-ylamine dimethanesulfonate], the IC50 [1] is reported as 6.3 nM, the “inhibition of TNF-α synthesis (in words)” value ([2]; oral 1, 3, 10, 30 mg/kg) is reported as “dose-dependent inhibition” and the “TMED50 (inhibition of TNF-α synthesis)” value ([2]; oral, LPS intra-articular 1 h later, ankle lavage after 2 h) is reported as 0.54 mg/kg. For the same compound, the TMED50 [3] was 1.5 mg/kg (b.i.d.).

Reference: patent publication US7582652B2, “Kinase inhibitors” (Eli Lilly and Company, priority 2004, dated 2009)
